Earlier results as cited in patent US12295935B2, “Method for therapeutic treatment of rosacea” (Sol-Gel Technologies Ltd., priority 2019, dated 2025).

System: rosacea
Details: BPO as sole active agent

## O=C(OOC(=O)c1ccccc1)c1ccccc1 [BPO, Benzoyl peroxide]
  response of lesions: unresponsive
